Data set [1] in a line: oxidation reduction potential of aminopolycarboxylic acid ferric complex salts (bleaching agents). Type of data set: physicochemical. The note with it: vs. NHE, pH = 6. From the text:
Then, practical examples of the aminopolycarboxylic acid ferric complex salt in this invention are illustrated below together with their oxidation reduction potentials, but the bleaching agents for use in this invention are not limited to these compounds.
The oxidation reduction potential of the bleaching agent is defined as the oxidation reduction potential obtained by the method described in Transactions of the Faraday Society, Vol. 55, (1959), pages 1312-1313.

A short description of data set [2]: acid dissociation constant pKa of secondary amines of formula (II). The note with it: in water at room temperature (about 25° C.).
Data set [3] in a line: Example 3: turbidity of concentrated stabilizing replenisher after passage of time. Format: physicochemical. Also noted: key to Turbidity after Passage of Time: E: Neither turbidity nor precipitation.; G: Turbidity occurred very slightly.; M: Slightly precipitation formed at the bottom of the vessel in addition to turbidity.; B: Precipitation layer of 5 mm or more formed on the bottom of the vessel. Particulars: 40° C. The protocol:
One liter of the concentrated stabilizing replenisher shown below was prepared and filled in a 1.2 liter polyethylene bottle.
After allowing to stand the concentrated solution thus-prepared at 40° C. for 1 month or 6 months, the turbidity of the solution was visually observed.
In addition, the evaluation standards of the turbidity of the solution with the passage of time in Table C are as follows.

The nature of data set [4]: Example 4: image storage stability (magenta fading), color reversal material. The note with it: 80° C. for 3 days. The protocol: Sample 401 prepared was slit in 35 mm width, and after perforated in the same format as films on the market and applying thereto a uniform light exposure, the sample was processed according to the following processing steps using an hanging type automatic processor.
The image storage stability test was carried out under the condition of 80° C. for 3 days. Also, in a bright place, the presence of unevenness of the sample was visually observed.

A short description of data set [5]: Example 1: evaluation of image storage stability (magenta fading), stabilizing solution. Particulars: for M Fading: 2 weeks 60° C. 20% RH. The protocol: In addition, the time for the stabilization step was changed by changing the length of the processing rack.
Thereafter, the sample was allowed to stand for 2 weeks under the conditions of 60° C. 20% RH and then the magenta density was measured again. Thus, magenta fading was evaluated by the reduced magenta density in the density stage that the magenta density after processing was 1.5. (M fading)

A short description of data set [6]: Example 6: image storage stability (magenta fading), image stabilizer in conditioning bath. The protocol:
The same processing steps as in Example 4 were carried out except for changing the conditioning solution and the stabilizing solution as follows.
In this case, the time for the final stabilizing step was one minute and the time for the conditioning step was changed as shown in Table E in the processing.
By using the same method as in Example 1, the image storage stability of the processed film obtained and the vapor pressure of formaldehyde were evaluated.

Data set [7] is described as follows: Example 2: fading of the magenta density at intermediate density portion. The note with it: formaldehyde 4.0 mmol, 2 weeks 60° C., 70% RH. As for the experimental part:
The following processing steps were carried out using the following processing solutions and a cine type automatic processor.
According to a sample, fading of the magenta density at the intermediate density portion and the occurrence of yellow stain at the minimum density portion were observed.

Where [8] appears, read: 5 mmol/l, stabilization time 10 sec.
Setting [9] is: 5 mmol/l, stabilization time 20 sec.
[10] abbreviates: 5 mmol/l, stabilization time 60 sec.
[11] abbreviates: 3 mmol/l, time of conditioning bath 40 sec.
Setting [12] is: 3 mmol/l, time of conditioning bath 90 sec.
Where [13] appears, read: 3 mmol/l, time of conditioning bath 120 sec.

We go through 41 molecules from patent US5270148A, “Processing solution for silver halide color photographic materials and method for processing the materials with the processing solution” (priority 1991, dated 1993).

Consider “1,3-Propylenediaminetetraacetic Acid Ferric Complex Salt [compound 7]”, for which the “Oxidation Reduction Potential” value in data set [1] was 250 mV.
On to “1,4-Butylenediaminetetraacetic Acid Ferric Salt [compound 4]”, for which, in data set [1], the “Oxidation Reduction Potential” value is on record as 230 mV.
Regarding `CCCCNC` [Compound 11-5], the pKa – broadly, the pH at which an ionisable group is half protonated – in data set [2] was 10.9.
`OCCN(CCO)Cn1cccn1` [Compound A-1]: the “Turbidity after Passage of Time” value in data set [3] (0.5 mol, 1 month) is listed as “G”; in data set [3] (0.5 mol, 6 months), “M”. Moreover, in data set [4] (6 mmol/l), the “M Fading” value is given as 0.04.
Take `Cc1ccn(CN(CCO)CCO)n1` [Compound A-11]: the “M Fading” value in data set [5] (setting [8]) amounted to 0.10; in data set [5] (setting [9]), 0.05; in data set [5] (setting [10]), 0.00; in data set [6] (setting [11]) it was 0.01; in data set [6] (setting [12]), 0.00; in data set [6] (setting [13]) it was 0.00.
For the molecule `OCCN(CCO)Cn1cncn1` [Compound A-12], the “Turbidity after Passage of Time” value is on record as “G” in data set [3] (0.5 mol, 1 month) and “M” in data set [3] (0.5 mol, 6 months).
Regarding `c1cnn(CN2CCOCC2)c1` [Compound A-16], the “M Fading” value in data set [5] (setting [8]) is recorded as 0.02; in data set [5] (setting [9]), 0.00; in data set [5] (setting [10]) it was 0.00; in data set [4] (6 mmol/l), 0.05.
With `c1cnn(CN2CCCCC2)c1` [Compound A-17], the figures for the “M Fading” value in data set [5] (setting [8]), in data set [5] (setting [9]) and in data set [5] (setting [10]) were 0.02, 0.01 and 0.00, respectively.
Regarding `c1cnn(CN2CCN(Cn3cccn3)CC2)c1` [Compound A-22], the “M Fading” value came to 0.01 in data set [5] (setting [8]); 0.00 in data set [5] (setting [9]); 0.00 in data set [5] (setting [10]); 0.00 in data set [4] (6 mmol/l); 0.01 in data set [6] (setting [11]); 0.00 in data set [6] (setting [12]). In data set [6] (setting [13]), the “M Fading” value is 0.00. In addition, the “Turbidity after Passage of Time” value in data set [3] (0.5 mol, 1 month) is “G”; in data set [3] (0.5 mol, 6 months), “M”.
On to `c1ncn(CN2CCN(Cn3cncn3)CC2)n1` [Compound A-23], for which the “M Fading” value in data set [5] (setting [8]), in data set [5] (setting [9]), in data set [5] (setting [10]), in data set [4] (6 mmol/l), in data set [6] (setting [11]) and in data set [6] (setting [12]) was 0.00 in each case. Moreover, the “M Fading” value in data set [6] (setting [13]) was 0.00. The “Turbidity after Passage of Time” value in data set [3] (0.5 mol, 1 month) is “G”; in data set [3] (0.5 mol, 6 months), “M”.
For `c1ncn(CN2CCOCC2)n1` [Compound A-26], the “M Fading” value came to 0.03 in data set [5] (setting [8]), 0.01 in data set [5] (setting [9]), 0.01 in data set [5] (setting [10]) and 0.00 in data set [4] (6 mmol/l).
Take `OCCN1CCN(Cn2cccn2)CC1` [Compound A-32]: the “M Fading” value in data set [4] (6 mmol/l) was 0.00; in data set [6] (setting [11]), 0.01; in data set [6] (setting [12]) it was 0.01; in data set [6] (setting [13]), 0.01.
For the molecule `OCN1CCN(Cn2cncn2)CC1` [Compound A-45], the “M Fading” value was found to be 0.04 in data set [5] (setting [8]); 0.01 in data set [5] (setting [9]); 0.01 in data set [5] (setting [10]); 0.01 in data set [6] (setting [11]); 0.01 in data set [6] (setting [12]); 0.01 in data set [6] (setting [13]).
For the molecule `c1nc[nH]n1` [Compound I-4], the M-Fading in data set [7] (formula (I) 4 mmol) is reported as 0.16; in data set [7] (formula (I) 16 mmol), 0.17.
In the case of `O=C1N(CO)CCN1CO` [Dimethylolethyleneurea, reference compound], the “Turbidity after Passage of Time” value is “M” in data set [3] (0.3 mol, 1 month) and “B (Precipitation layer of 5 mm or more formed on the bottom of the vessel.)” in data set [3] (0.3 mol, 6 months).
As to `C1N2CN3CN1CN(C2)C3` [Hexamethylenetetramine, reference compound], the “M Fading” value came to 0.30 in data set [5] (setting [8]); 0.31 in data set [5] (setting [9]); 0.30 in data set [5] (setting [10]); 0.28 in data set [5] (27 mmol/l, stabilization time 10 sec.); 0.27 in data set [5] (27 mmol/l, stabilization time 20 sec.); 0.28 in data set [5] (27 mmol/l, stabilization time 60 sec.). Besides, the “M Fading” value in data set [4] (6 mmol/l) is recorded as 0.29; in data set [4] (100 mmol/l), 0.10; in data set [6] (setting [11]), 0.25; in data set [6] (setting [12]), 0.22; in data set [6] (setting [13]), 0.10; in data set [6] (13 mmol/l, time of conditioning bath 40 sec.), 0.09. Further, the “M Fading” value was determined as 0.05 in data set [6] (13 mmol/l, time of conditioning bath 90 sec.) and 0.02 in data set [6] (13 mmol/l, time of conditioning bath 120 sec.). In addition, the “fading inhibition effect (in words)” value in data set [5] (Table A) is on record as “the fading inhibition effect is insufficient even when a large amount of the compound is used”.
On to `CNC` [II-1], for which the pKa in data set [2] amounted to 10.9.
In the case of `CCNCCO` [II-6], the pKa in data set [2] was 10.1.
As for `CNCCO` [II-8], in data set [2], the pKa is reported as 9.8.
For `CNCCCCO` [II-9], the pKa in data set [2] is on record as 9.6.
`CCCCNCCC#N` [II-10] showed a pKa in data set [2] of 8.3.
For `CC(C)NCCC#N` [II-11], in data set [2], the pKa was 8.0.
Turning to `CNCC(=O)N(C)C` [II-12], in data set [2], the pKa is reported as 8.8.
Same read-out and setting: with `CCNC[Si](C)(C)C` [II-13] the figure was 11.1; with `CCN(CC)CCNC` [II-14], 9.9; with `CNCCNC` [II-15], 9.9.
In the case of `CCNCCNCC` [II-16], the pKa in data set [2] was 10.2.
For the molecule `OCCNCCNCCO` [II-17], the pKa in data set [2] is on record as 9.2.
In data set [2], `CCNCCCNCC` [II-18] showed a pKa of 10.6.
`C1COCCN1` [II-21]: the M-Fading in data set [7] (formula (II) 4 mmol) is 0.04.
Turning to `C1CNCCN1` [II-22], the M-Fading in data set [7] (formula (II) 2 mmol) is 0.03; in data set [7] (formula (II) 4 mmol), 0.02.
In turn, `C1CCCNCC1` [II-23] registered a pKa in data set [2] of 10.9.
In data set [2], `CC1CCNCC1` [II-24] gave a pKa of 10.8.
In data set [2], `CC1CNC(C)CN1` (centres unmarked) [II-25] displayed a pKa of 9.7.
`CCOC(=O)N1CCNCC1` [II-26] returned a pKa in data set [2] of 8.3.
In turn, `C1NCC2CNCC1C2` [II-27] showed a pKa in data set [2] of 11.3.
In the case of “Diethylenetriaminepentaacetic Acid Ferric Complex Salt [compound 9]”, the “Oxidation Reduction Potential” value in data set [1] worked out at 80 mV.
Turning to “Glycol Ether Diaminetetraacetic Acid Ferric Complex Salt [compound 6]”, the “Oxidation Reduction Potential” value in data set [1] is 240 mV.
“Iminodiacetic Acid Ferric Complex Salt [compound 3]”: the “Oxidation Reduction Potential” value in data set [1] came out at 210 mV.
In the case of “Methyliminodiacetic Acid Ferric Complex Salt [compound 2]”, the “Oxidation Reduction Potential” value in data set [1] was found to be 200 mV.
As to “N-(2-Acetamido)iminodiacetic Acid Ferric Complex Salt [compound 1]”, the “Oxidation Reduction Potential” value in data set [1] turned out to be 180 mV.
